# Results: article PMC8387413 (Bioorganic chemistry, 2021)
# Like-named read-outs stand apart in the source and are kept apart here.
# Key:
# γδ T cells [1] = conditions: read-out: EC50 (γδ T cell stimulation), cited from earlier work
# γδ T cells [2] = format: cell-based; conditions: Homo sapiens, K562, read-out: ELISA EC50 μM (95% CI)
# γδ T cells [3] = assay: T cell proliferation: expansion of γδ T cells from human PBMCs, flow cytometry; format: cell-based; conditions: for EC50: Homo sapiens, T-cell
# K562 cells = assay: K562 viability; format: cell-based; conditions: for IC50: read-out: Toxicity IC50 μM (95% CI); for direct toxicity (in words): K562 cells, 72 hours of exposure, doses of 100 μM or lower
# [4] = read-out: Proliferation EC50 μM (95% CI)
# [5] = K562 leukemia cells, 72 hours exposure, n=3
SMILES,EC50 (γδ T cells [2]) [µM],EC50 (γδ T cells [3]; [4]) [µM],"IC50 (K562 cells; Homo sapiens, K562, 72 h) [µM]",IC50 (K562 cells; [5]) [µM],other results
C/C(=C\CCP(=O)(O)O)CO [C-HMBP],–,–,–,–,EC50 (γδ T cells [1]): ~4 µM
"COP(=O)(CC/C=C(\C)CO)OCOC(=O)c1ccc(/N=N/c2ccc(N(C)C)cc2)cc1 (stereo not drawn) [Compound 14, ((((E)-5-Hydroxy-4-methylpent-3-en-1-yl)(methoxy)phosphoryl)oxy)methyl 4-((E)-(4-(dimethylamino)phenyl)diazenyl)benzoate]",0.11,0.099,36,–,EC50 (γδ T cells [3]; read-out: EC50 for stimulation of γδ T cells): 0.11 µM; direct toxicity (in words) (K562 cells): toxic at 100 μM
"COP(=O)(CC/C=C(\C)CO)Oc1ccc2ccc(=O)oc2c1 (stereo not drawn) [Compound 16, (E)-Methyl (2-oxo-2H-chromen-7-yl)(5-hydroxy-4-methylpent-3-en-1-yl)phosphonate]",–,–,–,> 100,–
C/C(=C\CCP(=O)(O)Oc1ccc2ccc(=O)oc2c1)CO [Compound 17],–,–,–,> 100,–
"C/C(=C\CCP(=O)(OCOC(=O)c1ccc(/N=N/c2ccc(N(C)C)cc2)cc1)Oc1ccc2ccc(=O)oc2c1)CO (stereo not drawn) [Compound 18, ((((E)-5-Hydroxy-4-methylpent-3-en-1-yl) ((2-oxo-2H-chromen-7-yl)oxy)phosphoryl)oxy)methyl 4-((E)-(4-(dimethylamino)phenyl)diazenyl)benzoate]",0.0075,0.0005,27,–,direct toxicity (in words) (K562 cells): toxic at 100 μM
"COc1ccc2cc(C(=O)NCCc3ccc(OP(=O)(CC/C=C(\C)COC(C)=O)OC)cc3)c(=O)oc2c1 (stereo not drawn) [Compound 22, (E)-5-(Methoxy(4-(2-(7-methoxy-2-oxo-2H-chromene-3-carboxamido)ethyl)phenoxy)phosphoryl) -2-methylpent-2-en-1-yl acetate]",> 10,5.8,> 100,–,stimulation of proliferation (in words) (γδ T cells [3]; γδ T cells from human PBMCs): did not indicate substantial stimulation of proliferation
COc1ccc2cc(C(=O)NCCc3ccc(OP(=O)(CC/C=C(\C)COC(C)=O)OCOC(=O)c4ccc(/N=N/c5ccc(N(C)C)cc5)cc4)cc3)c(=O)oc2c1 (stereo not drawn) [Compound 23],–,–,–,> 100,–
"C/C(=C\COP(=O)(O)OP(=O)(O)O)CO [HMBPP, (E)-4-hydroxy-3-methyl-but-2-enyl diphosphate]",–,–,–,–,EC50 (γδ T cells [1]; in our assays): ~0.0005 µM
